Test results from patent US20230000852A1, “Treatment of Dermal Cytokine Storm Syndromes” (Bridge Pharma, Inc., priority 2021, published 2023).
Like-named read-outs stand apart in the source and are kept apart here.

Legend:
[1] = tested on: sedation; details: dogs, oral; U.S. Pat. No. 8,557,846; cited from earlier work
[2] = tested on: TNFα; experiment: PHA-induced TNFα release from human leucocytes (buffy coats); assay type: cell-based; details: Leucocyte, 30 min pre-incubation, PHA 5 μg/ml 16 hours
Experimental: The objective of this study was to assess the ability of norketotifen to inhibit cytokine release from stimulated human leucocytes.
The study was conducted in two phases. The first phase included optimization of the test methodology and including dose-range finding studies, using buffy coats from 3 human donors, stimulated with phytohemagglutinin (PHA). Following optimization of the test conditions, a final protocol was issued. In the ensuing Main Study, white blood cells (buffy coats) from 5 healthy human donors were stimulated with PHA, 5 μg/ml. The concentrations of the test article and the duration of exposure were optimized to obtain acceptable dose-response ratios. Thus, the inhibitory effects of three concentrations of NK and one concentration of ketotifen were evaluated in the Main Study. The buffy coats containing white blood cells from 5 male human donors were resuspended in assay media and were pre-incubated for 30 min with either vehicle/saline, ketotifen 4.3 μg/ml (10 μM) and norketotifen 0.4 μg/ml, 4.1 μg/ml and 41 μg/ml (1.0; 10 and 100 μM). Following these preincubations, the white blood cells were stimulated for 16 hours with PHA, 5 μg/ml. The cell system supernatants were then harvested and stored frozen pending analyses.
The concentration of the test articles had to be high in this ex vivo study since the test kit used a high concentration of the agonist PHA (5 μg/ml) and a long exposure time (16 hrs).

[3] = Dermal and plasma concentrations of NK after oral dosing to dogs; assay type: in vivo
Experimental: The purpose was to determine drug concentrations and calculate pharmacokinetics in the skin and plasma of dogs during and following daily oral administration of S-NK-HF (the S-isomer of norketotifen hydrogen fumarate) for four weeks.
Five male beagle dogs, weighing 11.2-13.9 kg (2-4 years old) were included in the study. All animals were administered p.o. doses of the test article 8.0 mg/kg/day as a hydrogen fumarate salt, equal to 5.6 mg/kg/day of the free base. A single isomer of NK was used, since an objective of this study was also to assess the racemization of the NK isomers. The animals were dosed once daily for four weeks followed by daily observations and tissue sampling for an additional two-week washout period.
Multiple plasma samples and skin biopsies were taken from each dog on Day 1 and Day 28 of drug administration. The plasma and skin samplings were performed at pre-dose, and at 2, 6, 12, and 24 hours post-dose. Plasma and skin samples were also taken intermittently at predetermined intervals during the 28-days dosing period and up to the last day of the study, which was Day 42. Blood samples were taken from v. cephalica antebrachii. Skin biopsies were taken from the area between the mid ventral to lateral abdominal areas, using a 6 mm skin biopsy punch. Subcutaneous fat deposits were carefully trimmed from the skin samples and the skin samples were then weighed. All plasma and skin samples were analyzed using LC/MS/MS methodology.

## O=C1Cc2ccccc2C(=C2CCNCC2)c2ccsc21 (racemic) [NK, norketotifen]
[1]
  Sedative side effects: free from sedative side effects
[2]; 1 uM
  inhibition at 1 µM: 4.54%
[2]; 10 uM
  inhibition at 10 µM: 42.2%
[2]; 100 uM
  inhibition at 100 µM: 89.1%
[3]; male, beagle, dog, plasma, oral, 8 mg/kg/day, plasma, read-out: Plasma half-life
  half-life: 10 to 11 h
[3]; male, beagle, dog, plasma, po, 8 mg/kg/day, oral S-NK 8.0 mg/kg/day for 28 days, dogs (N = 5), plasma, read-out: T1/2 Plasma (converted)
  half-life: 10.5 h
[3]; male, beagle, dog, skin, oral, 8 mg/kg/day, skin, read-out: Dermal half-life (duration of high concentration in the skin)
  half-life: ≤ 168 h
[3]; male, beagle, dog, skin, oral, 8 mg/kg/day, under laboratory conditions, read-out: Skin concentration relative to plasma concentration
  Kp: ≤ 16
[3]; male, beagle, dog, skin, po, 8 mg/kg/day, oral S-NK 8.0 mg/kg/day for 28 days, dogs (N = 5), skin, read-out: T1/2 Skin (converted)
  half-life: 168 h
[3]; male, beagle, dog, oral S-NK 8.0 mg/kg/day for 28 days, dogs (N = 5), plasma, read-out: MRT Plasma
  MRT: 12.8 h
[3]; male, beagle, dog, oral S-NK 8.0 mg/kg/day for 28 days, dogs (N = 5), skin, read-out: MRT Skin
  MRT: 169 h
[3]; oral S-NK 8.0 mg/kg/day for 28 days, dogs (N = 5), plasma
  AUC∞ Plasma: 3286 ng*hr/mL or g
[3]; oral S-NK 8.0 mg/kg/day for 28 days, dogs (N = 5), skin
  AUC∞ Skin: 54187 ng*hr/mL or g
[3]; skin of dogs
  Dermal half-life in skin of dogs (in words): one week
